Ends that are not written are not given here.

The target of one test is T1, CtpB R168A (Bacillus subtilis, UniProt O35002, R168A).
T1 construct: with the full-length CtpB variants R168A, R168F and V118Y; His tag; made in house; host or cells: E. coli BL21(DE3)pLysS
Description: Isothermal titration calorimetry, full-length CtpB R168A. Type of test: binding. The procedure: (§1) Figure S5 Peptide Binding to the PDZ Domain Stabilizes the Active Protease State of CtpB, Related to Figure 5 (A) The interfaces of the PDZ domain with the other domains of CtpB were analyzed to evaluate the prevailing conformation of CtpB in solution. The ribbon representations of CtpBi (left) and CtpBa1 (right) emphasize the PDZ domain that is shown in yellow. Interactions stabilizing the respective domain interfaces (summarized in top panel) are highlighted in orange and the residues forming hydrogen-bonds are listed. […] (B) ITC analysis characterizing the interaction of a peptide having an Ala-Tyr-Ala C terminus with the full-length CtpB variants R168A, R168F and V118Y. Raw data (top) and binding isotherm derived from the integrated heat (bottom) are shown. The determined KD dissociation constants are indicated below the binding curves. (C) Left: a ribbon model of the CtpB V118Y mutant structure, which was crystallized in the same resting conformation as CtpBi. […]
(§2) Thermodynamic values characterizing the interaction between CtpB and peptide ligands were determined by ITC (MCS-ITC; Microcal). […]
(§3) The interaction between CtpB (wild-type; mutant forms or isolated PDZ domain) and peptide ligands was characterized by ITC measurements (MCS-ITC; Microcal). […] Resulting data were analyzed with the MicroCal ORIGIN software, following the instructions of the manufacturer. […]

Test [1] has as its target T2, isolated PDZ domain of CtpB (Bacillus subtilis, UniProt O35002).
T2 construct: His tag; made in house; host or cells: E. coli BL21(DE3)pLysS
Description: Isothermal titration calorimetry, isolated PDZ domain. Type of test: binding.
Description: (§4) Figure S4 Peptide-Binding Properties of the PDZ Domain, Related to Figure 4 (A) The C termini of B. subtilis proteins predicted to reside in the intermembrane space were synthesized on a cellulose membrane according to the method of inverted peptides. Spotted membranes were probed with either the PDZ domain of CtpB (left) or the ΔPDZ mutant (right). (B) Identified strong binding peptides were further analyzed by systematically substituting residues critical for binding to the PDZ domain of CtpB. (C) ITC analysis testing the interaction of the indicated peptides with the isolated PDZ domain and full-length CtpB (S309A). Raw data (top) and binding isotherm derived from the integrated heat (bottom) are shown. The determined KD dissociation constants are indicated below the binding curves. […] The final model is overlaid with the omit 2Fo-Fc electron density (1.9 Å resolution, contoured at 1.2 σ) calculated without peptide ligand and Arg168.
as §2, §3

The target of the next test is T3, full-length CtpB (S309A) (Bacillus subtilis, UniProt O35002, S309A).
T3 construct: the isolated PDZ domain and full-length CtpB (S309A); His tag; made in house; host or cells: E. coli BL21(DE3)pLysS
T3 sequence (O35002 24-480 S309A): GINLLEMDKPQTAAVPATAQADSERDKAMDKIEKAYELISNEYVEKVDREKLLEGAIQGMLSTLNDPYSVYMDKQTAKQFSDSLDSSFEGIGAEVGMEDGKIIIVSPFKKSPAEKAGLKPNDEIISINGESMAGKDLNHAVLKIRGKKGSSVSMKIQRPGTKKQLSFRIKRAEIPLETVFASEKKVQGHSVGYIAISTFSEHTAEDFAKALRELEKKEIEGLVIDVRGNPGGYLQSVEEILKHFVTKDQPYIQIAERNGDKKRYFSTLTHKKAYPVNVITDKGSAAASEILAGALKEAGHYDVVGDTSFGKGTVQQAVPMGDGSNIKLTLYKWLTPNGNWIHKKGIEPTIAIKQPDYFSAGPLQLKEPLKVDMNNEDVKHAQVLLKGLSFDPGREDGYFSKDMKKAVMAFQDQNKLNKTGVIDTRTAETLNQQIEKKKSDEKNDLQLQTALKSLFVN
The test is described as follows: Isothermal titration calorimetry, full-length CtpB (S309A). Type of test: binding.
Description: as §4, §2, §3

For another test, the target named is T4, CtpB R168F (Bacillus subtilis, UniProt O35002, R168F).
T4 construct: with the full-length CtpB variants R168A, R168F and V118Y; His tag; made in house; host or cells: E. coli BL21(DE3)pLysS
T4 sequence (O35002 24-480 R168F): as the sequence (O35002 24-480 S309A) above, with R145F, A286S counted along it
The test is described as follows: Isothermal titration calorimetry, full-length CtpB R168F. Type of test: binding. The procedure:
as §1, §2, §3

Another test relates to PDZ domain of CtpB. Description: Peptide spot assay. Conditions: inverted peptide array on cellulose membrane; CtpB variants 10 μg/ml, overnight 4°C; anti-polyHis chemiluminescence. Type of test: binding, Bacillus subtilis. As to the method:
Peptide spot libraries were generated by synthesizing the 11 C-terminal residues of 1,849 B. subtilis proteins predicted to reside in the intermembrane space onto a cellulose membrane. Membranes were blocked for 4 hr with blocking buffer (blocking reagent, Sigma-Genosys) and subsequently incubated with CtpB. Bound protein was identified using specific antibodies. Further libraries were generated, where identified peptide sequences were systematically permutated.
Peptide spot libraries were generated by synthesizing the 11 C-terminal residues of 1849 B. subtilis proteins known to reside in the intermembrane space. Peptide libraries were generated by a MultiPep SPOTrobot (INTAVIS Bioanalytical Instruments AG) using an optimized method for generating inverted peptides ([Boisguerin et al., 2007], [Volkmer, 2009]). […] Bound CtpB was detected using a mouse anti-polyHis antibody (Sigma, 1:3,000 in blocking buffer, 2 hr at RT) followed by horseradish-peroxidase conjugated anti-mouse antibody (Calbiochem, 1:2,000 in blocking buffer, 1 hr at RT). […] The signal intensities with background-subtraction were recorded as […] with a LumiImager (Boehringer) and analyzed using the LumiAnalyst software. Secondary libraries for subtitutional analyses were generated by systematically permutating identified peptides and analyzed by the described peptide spot methodology.

In a further test the test system is CtpB S309A mutant. Description: Cocrystallization of CtpB S309A with peptide. Type of test: binding, Bacillus subtilis. Particulars: S309A/VPA complex, 1.9 Å, 20 mg/ml CtpB incubated with 1 mM peptide for 1 hr at 19°C.
The subject of the next test is CtpB. The test is described as follows: Degradation of in vitro translated 4FAproc constructs with distinct C termini by CtpB. Type of test: biochemical, Bacillus subtilis. Particulars: autoradiography. As to the method:
4FAproc with alternative C-termini was produced using the promega TNT Quick Coupled Transcription/Translation System, following manufactures instructions. Briefly, 40 μl of TNT Master Mix were added to 0.5 μg of template plasmid DNA and 20 μCi of ^35S-methionine (Perkinelmer). The coupled transcription-translation reaction was carried out upon incubation at 30°C for 2 hr. Relative product amounts were normalized based on ^35S-autoradiography following SDS-PAGE analysis.
To measure the proteolytic activities of the SpoIV signaling proteases, recombinant, purified proteases (CtpB, 4B or both, 3 μM) were mixed with respective 4FA model substrates (15 μM) and incubated for various times at 25°C. Reactions were stopped by adding SDS loading buffer. Subsequently, samples were incubated for 5 min at 95°C and analyzed by SDS-PAGE and Coomassie staining. […] Reaction aliquots were stopped and analyzed as described. To compare the cleavage efficiency of various CtpB mutants, the amount of 4FAproc substrate was quantified by analyzing the stained gels using the software ImageJ ([Schneider et al., 2012]). […] Reactions were analyzed by SDS–PAGE and immunoblotting using anti-GFP antibodies ([Rudner and Losick, 2002]). […] The cleavage assays were carried out as described and analyzed by SDS-PAGE and ^35S-autoradiography using Amercham Hyperfilm™ MP films.

T2 sequence (O35002 92-182): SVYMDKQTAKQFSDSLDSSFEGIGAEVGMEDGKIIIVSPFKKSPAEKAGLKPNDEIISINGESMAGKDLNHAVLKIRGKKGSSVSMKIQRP
T1 sequence (O35002 24-480 R168A): as the sequence (O35002 24-480 S309A) above, with R145A, A286S counted along it
Description for CtpB S309A mutant: CtpB crystals were grown at 19°C by the sitting-drop vapor-diffusion method using a 2:1 mixture of protein (20 mg/ml) and reservoir solution. […] Finally, diffraction data of CtpBi/VPA was collected at Deutsches Elektronen-Synchrotron (DESY, beamline P14) using a Pilatus detector (Dectris). Integration and scaling of diffraction data were performed with the programs DENZO, and [sequence]
For all other structures, phases were determined by molecular replacement using the program PHASER ([McCoy et al., 2007]) and the structure of CtpBa1 as search model. In all cases, energy restrained refinement was performed with the programs CNS ([Brünger et al., 1998]) and PHENIX ([Adams et al., 2010]), utilizing bulk solvent and anisotropic B-factor corrections depending on the development of the Rfree index. Refinement was performed in multiple cycles, interrupted for manual model re-building with the program O ([Jones et al., 1991]). Final models were verified with the program MolProbity ([Chen et al., 2010]) and crystal contacts analyzed using the PISA algorithm implemented on the Protein Data Bank Europe website ([Krissinel and Henrick, 2007]).

Turning to FMLLRRKAYA, the Kd was determined as 21 µM at CtpB R168A, 2.3 µM in test [1], 6.5 µM on full-length CtpB (S309A) and 40 µM at CtpB R168F.
As to H-NLVLAGLHSYA-OH, in the test with PDZ domain of CtpB, the “binding to PDZ domain in peptide spot analysis” value is listed as “identified PDZ binder”.
With “H-EMDKPQTAAVPA-OH [oligopeptide having a Val-Pro-Ala C terminus, cocrystallized with S309A]”, the “conformation of S309A cocrystallized with peptide” value in the test with CtpB S309A mutant was “active conformation”; with CtpB S309A mutant (listed as oligopeptide having a Val-Pro-Ala C terminus), “peptide binding itself is sufficient to transform the resting protease into the active conformation”.
Turning to FMLLRRKAYV, the Kd in test [1] turned out to be 0.9 µM.
For the substance Ala-Pro-Ala, the “degradation by CtpB (in words)” value in the test with CtpB (0.3 μM wild-type CtpB, in vitro translated 35S-methionine-labeled 4FAproc constructs) is on record as “rapidly degraded”. Moreover, the “efficiency in stimulating protease function” value with CtpB (4FAproc constructs applied at decreasing concentrations, 0.3 μM CtpB) was “less efficient in stimulating protease function than the Ala-Tyr-Val motif, especially at lower concentrations”.

These data come from paper PMC3808539, “CtpB Assembles a Gated Protease Tunnel Regulating Cell-Cell Signaling during Spore Formation in Bacillus subtilis” (Cell, 2013).
